How the values were obtained:
Human Dcp2 = target: T1, Human Dcp2 (Homo sapiens, UniProt Q8IU60); test: RNA decapping assay with recombinant hDcp2; format: biochemical; conditions: fraction of decapped RNA after 30 min of incubation with hDcp2, 27-nt RNA capped with the analog, 37 °C; triplicates ± SD
T1 construct: made in house; host or cells: E. coli
Description: Human Dcp2 was expressed in E. coli and purified as described previously ([52]). Short 27 nt-capped RNAs (24.2 ng) were diluted with decapping buffer (50 mM Tris–HCl pH 8.0, 50 mM NH4Cl, 0.01% NP-40, 1 mM DTT, 5 mM MgCl2 and 2 mM MnCl2; 2.9 μl of freshly prepared 10 × Buffer) and the final volume was adjusted to 29 μl with ultrapure RNase free water. 4.2 ng (5 μl) of the solution was taken out as time zero reference and diluted with 5 μl loading dye (5 M urea, 44% formamide, 20 mM EDTA, 0.03% bromophenol blue, 0.03% xylene cyanol). The remaining RNAs (20 ng/24 μl) were subjected to 10 nM hDcp2 (250 nM, 1 μl) and the mixtures were incubated at 37°C for 1 h. At defined time points (5, 15, 30 and 60 min), 4 ng of RNA (5 μl) were taken out and the reactions were quenched by adding an equal volume of loading dye. RNAs were resolved electrophoretically on denaturing 15% acrylamide:bisacrylamide 19:1/7 M urea/1 × TBE gel, stained with SYBR Gold (Invitrogen) and visualized using a Typhoon FLA 9500 (GE Healthcare). The decapping progress was determined for each time point by densitometry analysis of the gels, as a ratio between the intensity of the band corresponding to capped RNA and the sum of the intensity of bands from capped and uncapped RNAs. The percentages of remaining capped RNA were then plotted as a function of time.
The RNAs used to determine the capping efficiencies were also useful to study the susceptibility of capped RNA to decapping by hDcp2, the catalytic subunit of the major human mRNA decapping complex Dcp1/Dcp2, which releases m^7GDP and 5′-monophosphorylated RNA (in this case the 26-nt pApG-RNA24; Figure 4C). The progress of decapping at different time points (5, 15, 30 and 60 min) was monitored by HR-PAGE followed by densitometric analysis of the gels (Figure 4C, triplicates of gels are shown in Supplementary Figure S2), and the fraction of remaining capped RNA (27-nt) was plotted as a function of time (Figure 4D-G). […] For better visualization, the data of modified capped RNAs were grouped according to the type of modification present at the 5′ end and presented in separate graphs (Figure 4E–G). To quantify the relative susceptibility to hDcp2, we compared the decapping levels at the 30 min time point (Table 1). For RNAs capped with β-S-triphosphate analogs (1–6, Figure 4E, Table 1), we observed a significant difference in susceptibility to hDcp2 between RP and SP isomers, independent of the methylation pattern.

human eIF4E1a = target: T2, human eIF4E1a (Homo sapiens, UniProt P06730); test: Fluorescence quenching titration (FQT) binding assay with eIF4E
T2 construct: made in house; host or cells: E. coli Rosetta 2 (DE3)pLysS
T2 sequence (P06730 whole entry): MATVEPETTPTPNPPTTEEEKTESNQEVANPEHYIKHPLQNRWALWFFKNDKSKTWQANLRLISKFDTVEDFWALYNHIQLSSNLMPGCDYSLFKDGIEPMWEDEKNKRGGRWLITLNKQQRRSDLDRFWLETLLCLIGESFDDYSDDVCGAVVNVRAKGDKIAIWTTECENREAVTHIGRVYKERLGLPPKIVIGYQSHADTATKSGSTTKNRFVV
Description: The human eIF4E1a protein was expressed without affinity tag in E. coli Rosseta 2 (DE3)pLysS strain (Novagen) under conditions leading to accumulation of the produced protein in inclusion bodies ([48]). The protein was extracted from inclusion bodies with buffer containing 6 M guanidine hydrochloride, refolded by one-step dialysis against 50 mM HEPES/KOH (pH 7.2), 100 mM KCl, 0.5 mM EDTA, 2 mM DTT, and purified by ion exchange chromatography on HiTrap SP HP 5 ml column (GE Healthcare) using salts gradient. Finally, protein was filtered using Ultrafree MC-HV Centrifugal PVDF filters with 0.45 μm membrane pore (Millipore) to remove protein aggregates and its concentration was determined spectrophotometrically assuming the theoretical extinction coefficient ϵ280nm = 52 940 L mol^−1cm^−1—calculated from amino acid composition using algorithm on ExPASy Server.
Fluorescence titration measurements were carried out on a LS-55 spectrofluorometer (Perkin Elmer Co., Norwalk, CT, USA) in a quartz semi-micro cuvette (Hellma, Germany) with optical lengths 4 mm and 10 mm for absorption and emission, respectively, which was thermostated at 20.0 ± 0.2 °C. The titrations were performed in 50 mM Hepes/KOH pH 7.2, 100 mM KCl, 0.5 mM EDTA and 1 mM DTT by adding 1 μl aliquots of increasing concentrations of the cap solutions to 1.4 ml of 0.1 μM eIF4E1a solution. The eIF4E1a fluorescence was excited at 280 nm and the fluorescence intensity was monitored at a single wavelength 340 nm. The measured fluorescence intensities were corrected for dilution (<4%) and for the inner filter effect. Association equilibrium constants (Kas) were obtained by fitting the theoretical curve for fluorescence intensity (F) upon total concentration of cap analogs ([L]) to the titration data according to the equation: […]
with the concentration of the cap analogs–eIF4E1a complex [cx] given by:
where Δϕ stands for the difference between the fluorescence efficiencies of the apo- and cap analog bound proteins; ϕlig-free is the fluorescence efficiency of the free cap analog; F(0) is the initial fluorescence, and Pact is the total concentration of the active protein ([49]). The final KAS values were calculated as a weighted average from three independent titrations and represented as the KD values. Numerical least-squares nonlinear regression analysis was performed using ORIGIN 2021 from Microcal Software Inc., USA.
Recognition of the mRNA 5′ cap by translation initiation factor 4E (eIF4E) is considered to be the rate-limiting step for the entire translation process ([63],[64]), therefore we investigated the affinity of novel trinucleotide cap analogs to the canonical human eIF4E1a protein by fluorescence quenching titration (FQT; Table 1 column 1, Figure 3) ([65]). As a reference, we determined the dissociation constant between heIF4E1a and the trinucleotide cap-1 structure m^7GpppAmpG, which was equal to 42 nM and very close to the analogous value previously determined for mouse Δ27NeIF4E (46 nM) ([12]). In the case of all modifications tested, the KD values for cap-heIF4E1a complexes are consistent with the results previously obtained for dinucleotide counterparts and murine eIF4E protein, although the magnitude of the modification effect is generally lower. The most tightly bound tetraphosphate analogs (compounds 10–12) show KD values of 6–7 nM, which means that their affinity is about 6-fold higher compared to the triphosphate counterparts. The affinities decrease upon CH2 or CCl2 modification of the tetraphosphate bridge (compounds 13–16), but they are still 4–5 times higher than for the triphosphate analogs with the same adenosine methylation pattern.

In the case of `CO[C@@H]1[C@H](OP(=O)(O)OC[C@H]2O[C@@H](n3cnc4c(=O)[nH]c(N)nc43)[C@H](O)[C@@H]2O)[C@@H](CSP(=O)([O-])OP(=O)(O)OP(=O)(O)OC[C@H]2O[C@@H](n3c[n+](C)c4c(O)nc(N)nc43)[C@H](O)[C@@H]2O)O[C@H]1n1cnc2c(N)ncnc21` [Compound 8, m^7Gppp^5’SAmpG], the “Susceptibility to hDcp2 (@30 min)” value (Human Dcp2) is reported as 0.64 ± 0.11, the “effect of modification on binding affinity for heIF4E1a (in words)” value (human eIF4E1a; compared to corresponding triphosphates) is reported as “virtually no effect on binding affinity” and the Kd (human eIF4E1a; fluorescence quenching titration, 20 °C, pH 7.2, average of triplicates ± SD, read-out: heIF4E1a KD) is reported as 48.7 ± 1.2 nM.

From PMC11472058, “Trinucleotide cap analogs with triphosphate chain modifications: synthesis, properties, and evaluation as mRNA capping reagents” (Nucleic Acids Research, 2024)
